According to US20260078108A1, “SOLID FORMS OF A ROCK INHIBITOR” (REDX PHARMA PLC, priority 2022, published 2026):
Values after ≈ are worked out from the molar mass of the structure shown. Where a name gives a salt, the structure may show the parent alone. Values belong to the compound of their own block, whether it stands above or below them.

Legend:
[1] = 7-day stability testing of solid forms (HPLC purity, XRPD); assay type: physicochemical
Experimental: About 10 mg of freebase Form I, HCl salt Form II, Succinate Form I and received HCl salt Form I were placed at 60° C./capped and 40° C./75% RH (open), respectively. Samples were prepared in duplicate for each condition. At day 0 and day 7, the samples were analyzed by HPLC and XRPD to check the purity and crystal form, respectively.

[2] = Solubility testing in water, SGF, FaSSIF, FeSSIF at 37° C.; assay type: physicochemical; settings: for Solubility / Solubility (mg/mL): 37° C.; for Solubility (mg/mL): Water (pH of media 7.9)
Experimental: About 15 mg of sample was weighed into each sample vial and then 3.0 mL of water, simulated gastric fluid (SGF), Fasted State Simulated Intestinal Fluid (FaSSIF) or Fed State Simulated Intestinal Fluid (FeSSIF) media was added. Samples were prepared in triplicate for each media. The suspensions were kept shaking at 37° C. for up to 24 h. At 0.5, 2 and 24 h, suspensions were filtered and the filtrate was analyzed by HPLC.

[3] = test system: animal models of inflammatory bowel disease; settings: multiple animal models of inflammatory bowel disease; preclinical data, background; cited from earlier work

Purity (area %) ([1]; Day 0, HPLC): 96.89 area % | Decrease in purity versus Day 0 ([1]; Day 7, 40° C./75% RH (open)): 3.0 area % | XRPD (crystal form) ([1]; Day 7, 40° C./75% RH (open)): No change | Purity (area %) ([1]; Day 7, 40° C./75% RH (open), HPLC): 93.87 area % | Decrease in purity versus Day 0 ([1]; Day 7, 60° C./capped): 1.9 area % | XRPD (crystal form) ([1]; Day 7, 60° C./capped): No change | Purity (area %) ([1]; Day 7, 60° C./capped, HPLC): 95.01 area % | Solubility ([2]; FaSSIF (pH of media 6.5), 0.5 h): 14 µg/mL (≈ 24.5 µM) | Solubility ([2]; FaSSIF (pH of media 6.5), 2 h): 6 µg/mL (≈ 10.5 µM) | Solubility ([2]; FaSSIF (pH of media 6.5), 24 h): 1 µg/mL (≈ 1.75 µM) | Solubility ([2]; FeSSIF (pH of media 5.0), 0.5 h): 183 µg/mL (≈ 321 µM) | Solubility ([2]; FeSSIF (pH of media 5.0), 2 h): 126 µg/mL (≈ 221 µM) | Solubility ([2]; FeSSIF (pH of media 5.0), 24 h): 59 µg/mL (≈ 103 µM) | Solubility ([2]; SGF (pH of media 1.2), 0.5 h): ~5000 µg/mL (≈ 8760 µM) | Solubility ([2]; SGF (pH of media 1.2), 2 h): ~5000 µg/mL (≈ 8760 µM) | Solubility ([2]; SGF (pH of media 1.2), 24 h): ~5000 µg/mL (≈ 8760 µM) | Solubility (mg/mL) ([2]; 0.5 h): <LOD | Solubility (mg/mL) ([2]; 2 h): <LOD | Solubility (mg/mL) ([2]; 24 h): <LOD | pH ([2]; pH of sample in FaSSIF (pH of media 6.5), 0.5 h): 6.4 | pH ([2]; pH of sample in FaSSIF (pH of media 6.5), 2 h): 6.4 | pH ([2]; pH of sample in FaSSIF (pH of media 6.5), 24 h): 6.5 | pH ([2]; pH of sample in FeSSIF (pH of media 5.0), 0.5 h): 5.0 | pH ([2]; pH of sample in FeSSIF (pH of media 5.0), 2 h): 5.0 | pH ([2]; pH of sample in FeSSIF (pH of media 5.0), 24 h): 5.0 | pH ([2]; pH of sample in SGF (pH of media 1.2), 0.5 h): 1.2 | pH ([2]; pH of sample in SGF (pH of media 1.2), 2 h): 1.4 | pH ([2]; pH of sample in SGF (pH of media 1.2), 24 h): 1.4 | pH ([2]; pH of sample in Water (pH of media 7.9), 0.5 h): 7.9 | pH ([2]; pH of sample in Water (pH of media 7.9), 2 h): 7.6 | pH ([2]; pH of sample in Water (pH of media 7.9), 24 h): 8.7
SMILES: NCc1ccc(C(=O)Nc2ccncc2F)cc1-c1cccc(C(=O)Nc2ccc(SC[C@H]3CCOC3=O)cc2)c1 [Freebase Form I]

Purity (area %) ([1]; Day 0, HPLC, listed as HCI salt Form I): 97.62 area % | XRPD (crystal form) ([1]; Day 7, 40° C./75% RH (open)): No change | Purity (area %) ([1]; Day 7, 40° C./75% RH (open), HPLC, listed as HCI salt Form I): 97.62 area % | XRPD (crystal form) ([1]; Day 7, 60° C./capped): No change | Purity (area %) ([1]; Day 7, 60° C./capped, HPLC, listed as HCI salt Form I): 97.61 area %
SMILES: NCc1ccc(C(=O)Nc2ccncc2F)cc1-c1cccc(C(=O)Nc2ccc(SC[C@H]3CCOC3=O)cc2)c1 [HCl salt Form I]

Stability (in words) ([1]; chemical stability of solid forms, comparison): low chemical stability
SMILES: NCc1ccc(C(=O)Nc2ccncc2F)cc1-c1cccc(C(=O)Nc2ccc(SCC3CCOC3=O)cc2)c1 (centres unmarked) [Compound A, 4-(aminomethyl)-N-(3-fluoropyridin-4-yl)-3-{3-[(4-{[(2-oxooxolan-3-yl)methyl]sulfanyl}phenyl)carbamoyl]phenyl}benzamide]
Anti-fibrotic therapeutic effects [3]: strong anti-fibrotic therapeutic effects
